Laboratory results: the NIST ThermoML archive (doi:10.1021/je0602824)

Assay: xn = mol fraction of the nth substance listed
Settings: 101 kPa, Liquid

CCOS(=O)(=O)[O-].CCn1cc[n+](C)c1 [1-ethyl-3-methylimidazolium ethyl sulfate] + O
Settings	mass density [kg/m3]	viscosity [mPa·s]
278.15 K, x2 = 0	1251.12	308
278.15 K, x2 = 0.0001	–	308
278.15 K, x2 = 0.2112	1246.59	–
278.15 K, x2 = 0.2245	–	150
278.15 K, x2 = 0.4084	–	83
278.15 K, x2 = 0.4119	1239.56	–
278.15 K, x2 = 0.5939	1227.74	–
278.15 K, x2 = 0.5976	–	45
278.15 K, x2 = 0.7669	1201.83	–
278.15 K, x2 = 0.7675	–	22
278.15 K, x2 = 0.8487	1175.63	–
278.15 K, x2 = 0.9292	1120.63	6
278.15 K, x2 = 0.9683	1066.86	–
278.15 K, x2 = 0.9916	1021.13	–
288.15 K, x2 = 0	1244.13	166
288.15 K, x2 = 0.2112	1239.79	–
288.15 K, x2 = 0.2245	–	86
288.15 K, x2 = 0.4084	–	49
288.15 K, x2 = 0.4119	1232.7	–
288.15 K, x2 = 0.5939	1220.8	–
288.15 K, x2 = 0.5976	–	27
288.15 K, x2 = 0.7669	1194.85	–
288.15 K, x2 = 0.7675	–	14
288.15 K, x2 = 0.8487	1168.83	–
288.15 K, x2 = 0.9292	1115.02	5
288.15 K, x2 = 0.9683	1063.25	–
288.15 K, x2 = 0.9916	1019.46	–
298.15 K, x2 = 0	1237.37	95
298.15 K, x2 = 0.2112	1232.99	–
298.15 K, x2 = 0.2245	–	54
298.15 K, x2 = 0.4084	–	33
298.15 K, x2 = 0.4119	1225.85	–
298.15 K, x2 = 0.5939	1213.87	–
298.15 K, x2 = 0.5976	–	19
298.15 K, x2 = 0.7669	1187.81	–
298.15 K, x2 = 0.7675	–	10
298.15 K, x2 = 0.8487	1161.92	–
298.15 K, x2 = 0.9292	1109.14	4
298.15 K, x2 = 0.9683	1059.04	–
298.15 K, x2 = 0.9916	1016.78	–
308.15 K, x2 = 0	1230.61	62
308.15 K, x2 = 0.2112	1226.21	–
308.15 K, x2 = 0.2245	–	36
308.15 K, x2 = 0.4084	–	23
308.15 K, x2 = 0.4119	1219.02	–
308.15 K, x2 = 0.5939	1206.92	–
308.15 K, x2 = 0.5976	–	14
308.15 K, x2 = 0.7669	1180.72	–
308.15 K, x2 = 0.7675	–	8
308.15 K, x2 = 0.8487	1154.9	–
308.15 K, x2 = 0.9292	1103	4
308.15 K, x2 = 0.9683	1054.27	–
308.15 K, x2 = 0.9916	1013.26	–
318.15 K, x2 = 0	1223.9	41
318.15 K, x2 = 0.2112	1219.45	–
318.15 K, x2 = 0.2245	–	26
318.15 K, x2 = 0.4084	–	17
318.15 K, x2 = 0.4119	1212.21	–
318.15 K, x2 = 0.5939	1199.97	–
318.15 K, x2 = 0.5976	–	11
318.15 K, x2 = 0.7669	1173.56	–
318.15 K, x2 = 0.7675	–	6
318.15 K, x2 = 0.8487	1147.77	–
318.15 K, x2 = 0.9292	1096.59	3
318.15 K, x2 = 0.9683	1049.01	–
318.15 K, x2 = 0.9916	1009.03	–
328.15 K, x2 = 0	1217.23	30
328.15 K, x2 = 0.2112	1212.74	–
328.15 K, x2 = 0.2245	–	19
328.15 K, x2 = 0.4084	–	13
328.15 K, x2 = 0.4119	1205.41	–
328.15 K, x2 = 0.5939	1193.01	–
328.15 K, x2 = 0.5976	–	9
328.15 K, x2 = 0.7669	1166.34	–
328.15 K, x2 = 0.7675	–	6
328.15 K, x2 = 0.8487	1140.52	–
328.15 K, x2 = 0.9292	1089.92	3
328.15 K, x2 = 0.9683	1043.29	–
328.15 K, x2 = 0.9916	1004.16	–
338.15 K, x2 = 0	1210.6	21
338.15 K, x2 = 0.2112	1206.05	–
338.15 K, x2 = 0.2245	–	15
338.15 K, x2 = 0.4084	–	11
338.15 K, x2 = 0.4119	1198.63	–
338.15 K, x2 = 0.5939	1186.03	–
338.15 K, x2 = 0.5976	–	7
338.15 K, x2 = 0.7669	1159.05	–
338.15 K, x2 = 0.7675	–	5
338.15 K, x2 = 0.8487	1133.14	–
338.15 K, x2 = 0.9292	1083	3
338.15 K, x2 = 0.9683	1037.15	–
338.15 K, x2 = 0.9916	998.72	–
348.15 K, x2 = 0	1204.01	17
348.15 K, x2 = 0.2112	1199.4	–
348.15 K, x2 = 0.2245	–	12
348.15 K, x2 = 0.4084	–	9
348.15 K, x2 = 0.4119	1191.91	–
348.15 K, x2 = 0.5939	1179.05	–
348.15 K, x2 = 0.5976	–	6
348.15 K, x2 = 0.7669	1151.68	–
348.15 K, x2 = 0.7675	–	4
348.15 K, x2 = 0.8487	1125.7	–
348.15 K, x2 = 0.9292	1075.83	2
348.15 K, x2 = 0.9683	1030.61	–
348.15 K, x2 = 0.9916	992.76	–
